Where two headings read alike, the source gives them in different places.
Experiments:
[1] = Cytotoxicity assay (MTT) in fibroblasts; assay type: cell-based; conditions: mouse, 48 h of treatment, MTT, tested 6.25–200 µM
Description: (§1) The cytotoxic potential of Ox1–Ox7 was first evaluated in fibroblasts (L929) and macrophages (J774.G8). For this, 5 × 10^5 cells/mL were seeded in 96-well microplates containing 100 μL of DMEM or RPMI-1640 medium supplemented with 10% fetal bovine serum (FBS) and cultivated for 24 h at 37 °C, under 5% CO2 atmosphere. […] Untreated cells were considered as negative control. The cell viability was measured by spectrometry after 48 h of cultivation using MTT (Sigma-Aldrich, St. Louis, MO, USA) methodology described by Mosmann. The optical densities (OD) of the samples were read in a Glomax Multiplate reader (Promega, Madison, WI, USA) at 540 nm. Each assay was performed in triplicate in three independent experiments. […] The selectivity index (SI) for each compound was calculated as the ratio between the CC50 values obtained for J774.G8 macrophages and fibroblast and the IC50 values for promastigotes. The compound with a higher value of SI was selected for cytotoxicity evaluation in macrophages obtained from BALB/c mice peritoneal exudate (PeM), following the methodology described above.

[2] = Cytotoxicity assay (MTT) in macrophages; assay type: cell-based; conditions: mouse, 48 h of treatment, MTT, tested 6.25–200 µM
Description: as §1

[3] = system: L. infantum promastigotes; assay: Promastigote viability (CellTiter-Glo ATP); assay type: cell-based, L. infantum (BH46 strain); conditions: for IC50: Leishmania infantum, read-out: IC50 Pro; for SI Pro/L929: ratio CC50 (L929)/IC50 (promastigotes); for SI (promastigotes vs fibroblasts and J774.G8 macrophages): stated as bound; for SI Pro/J774.G8: ratio CC50 (J774.G8)/IC50 (promastigotes)
Description: Promastigote forms of L. infantum (BH46 strain) were cultivated at 27 °C in Schneider’s medium, supplemented with 10% (v/v) heat-inactivated fetal bovine serum (FBS, Gibco, Waltham, MA, USA), 100 U/mL penicillin, and 0.01 mg/mL streptomycin. Parasites in the log phase were used in the test of drugs against promastigotes, whereas those obtained in the stationary phase were used to infect peritoneal macrophages. […] The viability of promastigotes was assessed through ATP production using the CellTiter-Glo® Luminescent Cell Viability assay (Promega, Madison, WI, USA), in accordance with the manufacturer’s instructions.

[4] = system: L. infantum promastigotes; assay: Mitochondrial membrane potential, Rhodamine 123 flow cytometry; assay type: cell-based
Description: Afterward, the cells were centrifuged and stained with Rhodamine 123 (10 µg/mL, molecular probes, Invitrogen™, Waltham, MA, USA) in PBS for 15 min at 27 °C, in the dark. […] The changes in the fluorescence intensity for fluorochrome were determined by the variation index calculated as follows: (MT − MC)/MC where MT is the mean fluorescence intensity of treated cells and MC is the mean of fluorescence of control cells without treatment. A total of 20,000 events were acquired, and the data were analyzed with FLOWJO software version 10.2.

fibroblasts (L929) = assay: Cytotoxicity assay (MTT) in fibroblasts; assay type: cell-based; conditions: 200 µM, 48 h
Description: as §1

[5] = system: L. infantum amastigotes in PeMs; assay: microbe, parasite or virus in culture; conditions: for number of intracellular amastigotes / parasites in infected PeMs: glucantime 346.19 µM, Amphotericin B 10.55 µM
Description: After initial cultivation, non-adherent cells were removed by washing with fresh RPMI medium. Subsequently, PeMs were infected with stationary promastigote forms of L. infantum at 1:20 PeM/promastigotes ratio. […] After incubation time, the samples were washed in PBS, fixed with methanol, and stained with Giemsa. The percentage of infected macrophages was determined by counting 150 randomly chosen cells in duplicate, and the survival index (SuI) was calculated by multiplying the percentage of infected cells by the mean of amastigotes in infected cells. […] The tests were carried out in duplicate in three independent experiments.

macrophages (J774.G8) = assay: Cytotoxicity assay (MTT) in macrophages; assay type: cell-based; conditions: 200 µM, 48 h
Description: as §1

[6] = system: L. infantum promastigotes; assay: Scanning electron microscopy of promastigotes (rounded cells count); assay type: cell-based; conditions: 48 h, control 5%
Description: To identify alterations in the morphology of promastigotes and amastigotes, scanning (SEM) and transmission (TEM) electron microscopy assays were performed. For SEM, L. infantum promastigotes were treated with once or twice the IC50 concentration of Ox1 for 48 h. Subsequently, the parasites were harvested by centrifugation, washed with 100 mM PBS, pH 7.2, fixed at room temperature, for 1 h in 2.5% glutaraldehyde solution diluted in 0.1 M cacodylate buffer, pH 7.2. Cells were adhered to coverslips pre-coated with poly-L-lysine, post-fixed for 1 h with a solution containing 1% osmium tetroxide, 0.8% potassium ferricyanide, and 5 mM calcium chloride diluted in 0.1 M cacodylate buffer, pH 7.2, in light-protected environment. Then, the cells were dehydrated in graded ethanol series (15–100%) for 10 min at room temperature. Samples were critical-point dried in a LEICA EM CPD300 apparatus (Leica Microsystems, Wetzlar, Hessen, DE, Germany) and then coated with 20 nm gold and observed in a JEOL T-200 scanning electron microscope (JEOL Ltd., Tokyo, Japan). For MET, promastigotes and infected PeMs were treated or not with once or twice IC50 concentration of Ox1, fixed and post-fixed, as described above. For infected–adhered peritoneal macrophages, after the post-fixation, the cells were scraped off the culture dishes with a rubber policeman. […]

[7] = Cytotoxicity assay (MTT) in peritoneal macrophages; assay type: cell-based, BALB/c mice; conditions: BALB/c, mouse, peritoneal macrophages (PeM); peritoneal macrophages, estimated; read-out: CC50 for PeMs
Description: as §1

[8] = system: peritoneal macrophages from BALB/c mice (PeM); assay: Cytotoxicity assay (MTT) in peritoneal macrophages; assay type: cell-based
Description: as §1

[9] = system: L. infantum amastigotes in PeMs; parameters: method as in PMID 18660990, PMID 23070424; conditions: concentration used as positive control; read-out: IC50 of reference drugs; cited from earlier work
[10] = promastigotes, 48 h of treatment
[11] = 24 h, Ox1 8.24, 16.49, 32.98 µM

Compound	CC50 at 48 h ([1]; L929 fibroblasts) [µM]	CC50 at 48 h ([2]; J774.G8 macrophages) [µM]	melting point [°C]	IC50 [3, 10] [µM]	SI Pro/L929 [3]	SI (promastigotes vs fibroblasts and J774.G8 macrophages) [3]	number of intracellular amastigotes / parasites in infected PeMs [5, 11]	SI Pro/J774.G8 [3]	further results
O=[N+]([O-])c1cccc(-c2noc(NC3CCCCC3)n2)c1 [Ox2, N-Cyclohexyl-3-(3-nitrophenyl)-1,2,4-oxadiazol-5-amine]	> 200	> 200	131 to 133	220 ± 3.6	1.7	lower than 5.0	–	–	–
COc1ccc(-c2noc(NC3CCCCC3)n2)cc1 [Ox1, N-Cyclohexyl-3-(4-methoxyphenyl)-1,2,4-oxadiazol-5-amine]	> 200	> 200	109 to 110	32.9 ± 2.2	9.7	–	significantly decreased	8.9	variation index of membrane potential (Rhodamine 123) ([4]; 2× IC50 of Ox1, 48 h): −0.32; variation index of membrane potential (Rhodamine 123) ([4]; IC50 of Ox1, 48 h): +0.28; membrane potential (Rhodamine 123 fluorescence) vs control ([4]; ½ IC50 of Ox1, 48 h): No difference; reduction of cell viability, fibroblasts (fibroblasts (L929)): 20%; survival index (SuI) of amastigotes inside the macrophages [5, 11]: significantly decreased; SI against amastigotes ([5]; CC50 for PeM/IC50 of amastigote forms): 61.7; IC50 ([5]; Leishmania infantum, Peritoneal macrophage, 24 h, read-out: IC50 for amastigote forms in PeMs): 10 µM; reduction of cell viability, macrophages J774.G8 (macrophages (J774.G8)): 26%; percentage of rounding cells ([6]; IC50 (32.98 µM)): 7%; percentage of rounding cells ([6]; twice the IC50 (65.96 µM)): 30%; reduction in promastigote viability ([3]; 25 µM, 48 h): 32%; reduction of growth of parasites ([3]; 50 µM, 24 h): 66%; promastigote viability inhibition ([3]; 200 µM, regardless of the cultivation time (24 and 48 h)): exceeded 90%; SI against promastigotes compared to peritoneal macrophages ([3]; CC50 PeM/IC50 promastigotes): 18.7; increase in activity compared to compound Ox3 ([3]; promastigote IC50 comparison): about 10 times; CC50 at 48 h [7]: 617 µM; reduction of viability of PeMs ([8]; 400 µM, compared to control cells): 13%; viability of macrophages (PeM) ([8]; 6.25 to 200 µM): significantly increased
Cc1ccc(-c2noc(NC3CCCCC3)n2)cc1 [Ox4, N-Cyclohexyl-3-(4-methylphenyl)-1,2,4-oxadiazol-5-amine]	–	–	–	–	1.7	–	–	–	CC50 at 48 h ([1]; read-out: CC50 L929): > 200 µM; CC50 at 48 h ([2]; read-out: CC50 J774.G8): > 200 µM; IC50 ([3]; 48 h): 174 ± 12.3 µM
C#CCN(c1nc(-c2ccc([N+](=O)[O-])cc2)no1)C1CCCCC1 [Ox6, N-Cyclohexyl-3-(4-nitrophenyl)-N-(prop-2-yn-1-yl)-1,2,4-oxadiazol-5-amine]	> 200	> 200	108 to 110	92.2 ± 1.9	3.7	lower than 5.0	–	2.5	–
C#CCN(c1nc(-c2cccc([N+](=O)[O-])c2)no1)C1CCCCC1 [Ox7, N-Cyclohexyl-3-(3-nitrophenyl)-N-(prop-2-yn-1-yl)-1,2,4-oxadiazol-5-amine]	> 200	197 ± 6	94 to 96	98.2 ± 1.4	–	–	–	2.0	–
C[C@@H]1[C@H](O)[C@@H](C)/C=C/C=C/C=C/C=C/C=C/C=C/C=C/[C@H](O[C@@H]2O[C@H](C)[C@@H](O)[C@H](N)[C@@H]2O)C[C@@H]2O[C@](O)(C[C@@H](O)C[C@@H](O)[C@H](O)CC[C@@H](O)C[C@@H](O)CC(=O)O[C@H]1C)C[C@H](O)[C@H]2C(=O)O [Amphotericin B, reference compound]	–	–	–	–	–	–	reduced the number of intracellular amastigotes	–	IC50 [9]: 10.6 µM
O=[N+]([O-])c1ccc(-c2noc(NC3CCCCC3)n2)cc1 [Ox3, N-Cyclohexyl-3-(4-nitrophenyl)-1,2,4-oxadiazol-5-amine]	> 200	> 200	201 to 203	336 ± 12.1	1.1	–	–	–	–
C#CCN(c1nc(-c2ccccc2)no1)C1CCCCC1 [Ox5, N-Cyclohexyl-3-phenyl-N-(prop-2-yn-1-yl)-1,2,4-oxadiazol-5-amine]	> 200	160 ± 6.5	112 to 114	84.7 ± 3.6	4.4	lower than 5.0	–	–	–
c1ccc(-c2noc(NC3CCCCC3)n2)cc1 [Ox, N-Cyclohexyl-3-(phenyl)-1,2,4-oxadiazol-5-amine]	–	–	125 to 127	–	–	–	–	–	–
antimoniate of meglumine [glucantime, reference compound]	–	–	–	–	–	–	reduced the number of intracellular amastigotes	–	IC50 [9]: 346 µM
